PMC8894159, “Paltusotine, a novel oral once-daily nonpeptide SST2 receptor agonist, suppresses GH and IGF-1 in healthy volunteers” (Pituitary, 2022)
Where two headings read alike, the source gives them in different places.

Assay: Single ascending dose plasma pharmacokinetics in healthy volunteers
Format: in vivo
Conditions: human
Description: In the single-dose phase, participants were randomized 6:2 to paltusotine (1.25, 2.5, 5, 10, 20, 40, and 60 mg) or placebo in 7 cohorts (S1 to S7). Cohorts comparing oral bioavailability of solution versus capsules and the effect of a standardized high-fat, high-calorie breakfast on oral bioavailability of the capsule formulation employed the 10 mg dose level. In the multiple-dose phase, participants were randomized 6:3 to once-daily oral paltusotine capsules or placebo at doses of 5 mg for 7 days (M1, Day Last = Day 7), and 10, 20, and 30 mg daily for 10 days (M2, M3, M4, Day Last = Day 10). The initial starting dose of 1.25 mg in the single-dose phase was selected for this study based on nonclinical pharmacologic activity, pharmacokinetics, and safety studies. Subsequent doses were either specified in the protocol or were selected by the safety review committee responsible for the safety oversight of the study.
Single-dose cohorts: Plasma samples were collected on Day 1 (pre-dose, every 15 min up to 90 min post-dose, then at 2, 3, 4, 6, 8, 10, 12, 18, 24, 48, 72, 96, 120, and 144 h post-dose). Multiple-dose cohorts: For the 5 mg cohort, plasma samples were collected on Day 1 (pre-dose, every 15 min up to 90 min post-dose, then at 2, 3, 4, 6, 8, 10, 12, and 18 h post-dose), Days 2–6 (pre-dose and 2 h post-dose), Day 7 (same time points as Day 1, followed by samples at 18, 24, 48, 72, 96, 120, and 144 h post-dose). For all other multiple-dose cohorts, plasma samples were collected on Day 1 (pre-dose, every 15 min up to 90 min post-dose, then at 2, 3, 4, 6, 8, 10, 12, and 18 h post-dose), Days […] (same time points as Day 1, followed by samples at 18, 24, 48, 72, 96, 120, 144, 192, and 240 h post-dose).
Plasma pharmacokinetic sample analysis for paltusotine was determined using validated procedures by CPR Pharma Services (Thebarton, Australia). Briefly, plasma paltusotine concentrations were determined by high-pressure liquid chromatography (HPLC) coupled with tandem mass spectrometry detection (MS/MS). Deuterated paltusotine was used as an internal standard. Supported liquid extraction was used to extract paltusotine and the internal standard. The analyte was separated by HPLC using an ACE C18-AR column (Advanced Chromatography Technologies, Ltd, Aberdeen, Scotland), and the eluates were monitored by an API 4000™ LC–MS/MS System (Sciex, Framingham, MA) in positive multiple reaction monitoring mode. The extract was then assayed against a calibration curve. The data were acquired and integrated by the data acquisition software Analyst® (Sciex), linked directly to the API 4000™ LC–MS/MS System, and then processed using Watson LIMS™ software (Thermo Scientific, Waltham, MA), where applicable. The calibration range was 0.100 to 100 ng/mL using 100 μL of plasma, with a lower limit of quantification of 0.100 ng/mL. The inter-assay accuracy was 94% to 100%, and the inter-assay precision (% CV) was between 6.1% and 15%.
For assessing pharmacokinetics of paltusotine, the single-dose pharmacokinetic population included all randomized participants who received any amount of study drug with sufficient plasma concentration data. For the multiple-dose cohorts, only participants who received all doses were included. The relative bioavailability of the capsule formulation was determined by comparing its pharmacokinetic parameters with those of the solution formulation at the 10 mg dose. Food effect was determined at the same dose by comparing pharmacokinetic parameters in the fasting state to those when paltusotine was administered with a high-fat, high-calorie meal. For both formulation and food effect, ANOVA with treatment as a fixed effect and subject as a random effect was performed. Data for peak concentration (Cmax), AUC0-last, and AUC0-inf were natural log-transformed.

[1] = oral, single dose 40 mg capsules, fasted, mean ± SD
[2] = oral, single dose 60 mg capsules, fasted, mean ± SD
[3] = single dose 1.25 mg oral solution, fasted, mean ± SD
[4] = single dose 2.5 mg oral solution, fasted, mean ± SD
[5] = single dose 5 mg oral solution, fasted, mean ± SD
[6] = single dose 10 mg oral solution, fasted, mean ± SD
[7] = single dose 20 mg oral solution, fasted, mean ± SD

**Q.** What does the source list for `Cl.N#Cc1cccc(-c2ccc3ncc(-c4cc(F)cc(F)c4)c(N4CCC(N)CC4)c3c2)c1O` [paltusotine, 3-[4-(4-Aminopiperidin-1-yl)-3-(3,5-difluorophenyl)quinolin-6-yl]-2-hydroxybenzonitrile hydrochloride]?
**A.** half-life (oral, overall summary (abstract), read-out: half-life of elimination (converted)): ~30 h; half-life (oral, sampling up to 144 h post-dose (single-dose cohorts and 5 mg multiple-dose cohort), range, read-out: t1/2 (converted)): 22 to 34 h; AUC(0-inf) [1]: 2650 ± 1200 ng·h/mL; Cmax [1]: 185 ± 118 ng/mL; Tmax (oral, single dose 40 mg capsules, fasted, mean ± SD, read-out: Tmax): 3.4 ± 1.1 h; half-life (oral, single dose 40 mg capsules, fasted, mean ± SD, read-out: t1/2 (converted)): 27 ± 3.1 h; AUC(0-inf) [2]: 2300 ± 1060 ng·h/mL; Cmax [2]: 154 ± 77.6 ng/mL; Tmax (oral, single dose 60 mg capsules, fasted, mean ± SD, read-out: Tmax): 3 ± 1.2 h; half-life (oral, single dose 60 mg capsules, fasted, mean ± SD, read-out: t1/2 (converted)): 25 ± 2.1 h; AUC(0-inf) [3]: 122 ± 25.7 ng·h/mL; Cmax [3]: 9.81 ± 1.56 ng/mL; Tmax (single dose 1.25 mg oral solution, fasted, mean ± SD, read-out: Tmax): 1.3 ± 0.44 h; half-life (single dose 1.25 mg oral solution, fasted, mean ± SD, read-out: t1/2 (converted)): 22 ± 5.5 h; AUC(0-inf) [4]: 320 ± 66.3 ng·h/mL; Cmax [4]: 22.7 ± 4.74 ng/mL; Tmax (single dose 2.5 mg oral solution, fasted, mean ± SD, read-out: Tmax): 1.6 ± 0.8 h; half-life (single dose 2.5 mg oral solution, fasted, mean ± SD, read-out: t1/2 (converted)): 29 ± 9 h; AUC(0-inf) [5]: 590 ± 93.7 ng·h/mL; Cmax [5]: 48.1 ± 7.05 ng/mL; Tmax (single dose 5 mg oral solution, fasted, mean ± SD, read-out: Tmax): 1.3 ± 0.41 h; half-life (single dose 5 mg oral solution, fasted, mean ± SD, read-out: t1/2 (converted)): 25 ± 9.4 h; AUC(0-inf) [6]: 1650 ± 464 ng·h/mL; Cmax [6]: 95.2 ± 19.3 ng/mL; Tmax (single dose 10 mg oral solution, fasted, mean ± SD, read-out: Tmax): 2.2 ± 1.3 h; half-life (single dose 10 mg oral solution, fasted, mean ± SD, read-out: t1/2 (converted)): 29 ± 4.3 h; AUC(0-inf) [7]: 2960 ± 963 ng·h/mL; Cmax [7]: 167 ± 29.1 ng/mL; Tmax (single dose 20 mg oral solution, fasted, mean ± SD, read-out: Tmax): 1.9 ± 1 h; half-life (single dose 20 mg oral solution, fasted, mean ± SD, read-out: t1/2 (converted)): 29 ± 5 h; Tmax (single-dose oral solution, fasted, range across 1.25-20 mg, read-out: Tmax (time of median peak concentrations)): 1.3 to 2.2 h; half-life (single-dose oral solution, fasted, range across 1.25-20 mg, read-out: apparent terminal elimination t1/2): 22 to 29 h
